Assay [1] deals with KIF18a-Microtubule Complex (Homo sapiens (Human), UniProt Q8NI77). Description: Binding kinetics to KIF18a-microtubule complex (global progress curve analysis). The note with it: for koff (off-rate from binding kinetics assay) / kon (on-rate from binding kinetics assay): global progress curve analysis; for Ki: read-out: KI (determined from binding kinetic assay koff/kon), koff/kon; for koff: read-out: koff (off-rate from binding kinetics assay). The method, then:
Binding Kinetics to KIF18a-Microtubule Complex
Compound binding kinetics parameters (kon and koff) were determined by the method of global progress curve analysis (GPCA). […] ADP product levels were determined by the Promega® ADP-Glo assay. The time/dose-dependent progress curves were then globally fit to a Michaelis-Menten kinetics model with 1-step slow binding inhibition to derive both on-rate kon and off-rate koff values (Zhang, R., Wong, K. (2017): “High performance enzyme kinetics of turnover, activation and inhibition for translational drug discovery”, Expert Opinion on Drug Discovery, 2017 January; 12(1):17-37. doi: 10.1080/17460441.2017.1245721).

Assay [2] deals with hKIF18A (1-374) (Homo sapiens (Human), UniProt Q8NI77). Description: Inhibition of KIF18A microtubule-dependent ATPase activity (ADP-Glo). To be noted: KIF18A microtubule-dependent ATPase activity, biochemical assay. Background: ADP-Glo turns the ADP formed in a reaction into a luminescent signal.
In assay [3] the test system is HCC15 cells. Nature of the assay: Cell viability of KIF18a-sensitive cell lines, HCC15 (Cell Titre-Glo, 7 days). The assay is classed as cell-based. To be noted: HCC15, 168 h, read-out: HCC-15 IC50. The method, then:
Cell Viability of KIF18a-Sensitive Cell Lines
Cell lines were seeded as follows 24 hours before compound treatment: HCC15 (Korean Cell Line Bank) 600 cell/well, 95 μL of RPMI-1640 media supplemented with 100 units/mL penicillin, 100 units/mL streptomycin and 10% FBS; NIH:OVCAR-3 (ATCC), 1000 cell/well, 95 μL of RPMI-1640 media supplemented with 100 units/mL penicillin, 100 units/mL streptomycin, 0.01 mg/mL bovine insulin, and 20% FBS; JIMT-1 (Addexbio) 1000 cell/well, 95 μL of DMEM media supplemented with 100 units/mL penicillin, 100 units/mL streptomycin, and 10% FBS.
Test compounds were added to cells in a 20× dilution scheme by adding 5 μL of serially diluted compound to the plate, and the treated cells were incubated for an additional 7 days in a 37° C., 5% CO2 incubator. DMSO was used as the negative control (0% effect), and wells omitting cells were used as the positive control (100% effect). The cells were incubated for seven days, and cell viability determined via the Promega Cell Titre-Glo® Assay kit. Luminescence units were converted to ATP concentrations via an ATP standard curve (10 point, 2-fold dilution from 5 uM). % Inhibition was calculated for each well as: ([max−min]−[test−min])/[max−min]. IC50 values were calculated from concentration vs. % Inhibition data via a four-parameter variable slope model.

Where [4] appears, read: HCC-15 cells, 7 days, Cell Titre-Glo.

SMILES strings stand for the structures. Read-outs that look alike come from different tables or passages of the source.

Sequence of hKIF18A (1-374) (Q8NI77 whole entry, looked up): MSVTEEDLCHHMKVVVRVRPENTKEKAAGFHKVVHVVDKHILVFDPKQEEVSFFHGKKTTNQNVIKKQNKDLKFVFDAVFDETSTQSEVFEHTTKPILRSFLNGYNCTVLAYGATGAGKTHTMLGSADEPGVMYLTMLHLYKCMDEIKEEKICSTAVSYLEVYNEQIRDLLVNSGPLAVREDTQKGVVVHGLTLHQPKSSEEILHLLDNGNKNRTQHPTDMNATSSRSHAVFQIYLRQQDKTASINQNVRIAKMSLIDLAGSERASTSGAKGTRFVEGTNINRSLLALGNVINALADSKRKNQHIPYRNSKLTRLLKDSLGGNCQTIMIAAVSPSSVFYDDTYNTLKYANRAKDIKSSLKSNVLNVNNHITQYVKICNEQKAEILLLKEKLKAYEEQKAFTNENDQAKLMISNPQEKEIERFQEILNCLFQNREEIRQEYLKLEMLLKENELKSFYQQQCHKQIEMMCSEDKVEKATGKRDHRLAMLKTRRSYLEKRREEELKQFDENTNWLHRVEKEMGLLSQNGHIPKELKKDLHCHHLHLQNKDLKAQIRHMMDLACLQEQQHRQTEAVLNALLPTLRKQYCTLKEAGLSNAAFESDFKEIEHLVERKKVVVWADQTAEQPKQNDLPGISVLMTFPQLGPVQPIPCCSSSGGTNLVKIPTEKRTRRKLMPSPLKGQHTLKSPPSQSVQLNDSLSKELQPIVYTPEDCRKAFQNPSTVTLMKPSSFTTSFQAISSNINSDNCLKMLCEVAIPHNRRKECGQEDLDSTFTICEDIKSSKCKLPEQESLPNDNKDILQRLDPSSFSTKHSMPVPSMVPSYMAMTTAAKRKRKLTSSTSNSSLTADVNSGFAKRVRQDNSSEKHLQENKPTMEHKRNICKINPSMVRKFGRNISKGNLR
Sequence of hKIF18A (1-374) (Q2XVP4 whole entry partner, looked up): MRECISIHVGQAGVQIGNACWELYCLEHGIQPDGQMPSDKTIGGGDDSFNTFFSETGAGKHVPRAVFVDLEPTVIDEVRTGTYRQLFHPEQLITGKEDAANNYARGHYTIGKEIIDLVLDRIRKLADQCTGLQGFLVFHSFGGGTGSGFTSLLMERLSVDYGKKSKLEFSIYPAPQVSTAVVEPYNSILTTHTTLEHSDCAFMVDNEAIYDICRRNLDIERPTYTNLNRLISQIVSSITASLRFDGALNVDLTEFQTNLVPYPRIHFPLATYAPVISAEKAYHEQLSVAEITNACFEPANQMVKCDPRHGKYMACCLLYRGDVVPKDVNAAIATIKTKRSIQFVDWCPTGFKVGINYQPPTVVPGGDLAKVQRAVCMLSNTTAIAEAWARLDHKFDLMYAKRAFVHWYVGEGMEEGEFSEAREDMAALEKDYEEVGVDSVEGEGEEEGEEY
Sequence of hKIF18A (1-374) (P02554 whole entry partner, looked up): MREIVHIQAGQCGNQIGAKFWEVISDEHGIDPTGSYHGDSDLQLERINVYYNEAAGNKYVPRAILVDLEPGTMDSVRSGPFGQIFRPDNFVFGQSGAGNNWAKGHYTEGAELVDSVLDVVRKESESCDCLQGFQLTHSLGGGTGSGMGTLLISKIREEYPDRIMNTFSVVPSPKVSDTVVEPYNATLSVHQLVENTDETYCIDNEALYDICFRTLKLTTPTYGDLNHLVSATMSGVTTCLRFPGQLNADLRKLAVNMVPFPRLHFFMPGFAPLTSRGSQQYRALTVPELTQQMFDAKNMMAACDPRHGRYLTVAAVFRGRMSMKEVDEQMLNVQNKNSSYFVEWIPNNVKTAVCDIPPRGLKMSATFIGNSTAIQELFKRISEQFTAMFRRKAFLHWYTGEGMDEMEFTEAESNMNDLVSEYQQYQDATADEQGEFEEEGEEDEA
Sequence of KIF18a-Microtubule Complex (Q8NI77 whole entry, looked up): as the sequence (Q8NI77 whole entry, looked up) above
Sequence of KIF18a-Microtubule Complex (Q2XVP4 whole entry partner, looked up): as the sequence (Q2XVP4 whole entry partner, looked up) above
Sequence of KIF18a-Microtubule Complex (P02554 whole entry partner, looked up): as the sequence (P02554 whole entry partner, looked up) above

With `CS(=O)(=O)Nc1ccc2c(c1)C1(CCC3(CC3)CC1)CN2C(=O)c1cccc([C@@H](O)C2CCCC2)n1` (single isomer, unassigned) [Compound 317a], in assay [1], the “koff (off-rate from binding kinetics assay)” value was found to be 9.17e-05 s⁻¹, the “kon (on-rate from binding kinetics assay)” value (“kon” below) came out at 9170 M⁻¹ s⁻¹, the “disc. t1/2 (dissociation half-life ln(2)/koff)” value is reported as 2.1 h and the Ki amounted to 10 nM. In addition, the IC50 (as a rule, the concentration needed to halve the response being measured) in assay [2] was 11 nM.
In the same order, the values of `CS(=O)(=O)Nc1ccc2c(c1)C1(CCC3(CC3)CC1)CN2C(=O)c1cccc([C@H](O)C2CCCC2)n1` (single isomer, unassigned) [Compound 317b] are 9.72e-05 s⁻¹, 16400 M⁻¹ s⁻¹, 2.0 h, 5.9 nM and 10 nM.
In the same order, the values of `CS(=O)(=O)Nc1ccc2c(c1)C1(CCC3(CC3)CC1)CN2C(=O)c1cccc([C@H](O)C2CC(F)(F)C2)c1` (single isomer, unassigned) [Compound 351a] are 0.000114 s⁻¹, 19400 M⁻¹ s⁻¹, 1.7 h, 5.8 nM and 8.7 nM.
Turning to `CS(=O)(=O)Nc1ccc2c(c1)C1(CCC3(CC3)CC1)CN2C(=O)c1cccc(S(=O)(=O)N2CC[C@@H](F)C2)c1` [(R)-Compound 239, (R)-N-(1″-(3-((3-fluoropyrrolidin-1-yl)sulfonyl)benzoyl)dispiro[cyclopropane-1,1′-cyclohexane-4′,3″-indolin]-5″- yl)methanesulfonamide], in assay [1], the “kon” value was determined as 16700 M⁻¹ s⁻¹; the “disc. t1/2 (dissociation half-life ln(2)/koff)” value stood at 8.1 h; the Ki was determined as 1.4 nM; the koff (as a rule, the rate constant with which the complex falls apart) is 2.39e-05 s⁻¹. Moreover, the IC50 in assay [2] was 9.3 nM.
As for `O=C(Nc1cccc(C(=O)N2CC3(CCCC3)c3c(F)cccc32)c1)NC1CC1` [Compound 2′, 1-cyclopropyl-3-(3-(4′-fluorospiro[cyclopentane-1,3′-indolin]-1′-carbonyl)phenyl)urea], the concentration for half-maximal inhibition (IC50) came to 2600 nM in assay [3] (setting [4]) and 920 nM in assay [2].
For `O=C(c1cccc(S(=O)(=O)N2CCC(F)(F)CC2)c1)N1CC2(CCC3(CC3)CC2)c2ccccc21` [Compound 4, (3-((4,4-difluoropiperidin-1-yl)sulfonyl)phenyl)(dispiro[cyclopropane-1,1′-cyclohexane-4′,3″-indolin]-1″- yl)methanone], the results for the half-inhibitory concentration (IC50) in assay [3] (setting [4]) and in assay [2] were 2100 nM and 360 nM, respectively.
In the same order, the values of `CC(C)(C)NS(=O)(=O)c1cccc(C(=O)N2CC3(CCC4(CC4)CC3)c3ccccc32)c1` [Compound 10, N-(tert-butyl)-3-(dispiro[cyclopropane-1,1′-cyclohexane-4′,3″-indoline]-1″- carbonyl)benzenesulfonamide] are 2200 nM and 270 nM.
As to `CS(=O)(=O)Nc1ccc2c(c1)C1(CCCC1)CN2C(=O)c1cccc(S(=O)(=O)N2CCC(F)(F)CC2)c1` [Compound 18, N-(1′-(3-((4,4-difluoropiperidin-1-yl)sulfonyl)benzoyl)spiro[cyclopentane-1,3′-indolin]-5′-yl)methanesulfonamide], the IC50 in assay [3] was determined as 160 nM; in assay [2], 79 nM.
Turning to `O=C(c1cccc(S(=O)(=O)N2CCC(F)(F)CC2)c1)N1CC2(CCCC2)c2cc(NS(=O)(=O)CCO)ccc21` [Compound 27, N-(1′-(3-((4,4-difluoropiperidin-1-yl)sulfonyl)benzoyl)spiro[cyclopentane-1,3′-indolin]-5′-yl)-2-hydroxyethane-1-sulfonamide], in assay [3], the IC50 was 140 nM.
Turning to `CS(=O)(=O)Nc1ccc2c(c1)C1(CCCCC1)CN2C(=O)c1cccc(S(=O)(=O)N2CC3(CCC3)C2)c1` [Compound 129, N-(1′-(3-((2-azaspiro[3.3]heptan-2-yl)sulfonyl)benzoyl)spiro[cyclohexane-1,3′-indolin]-5′-yL)methanesulfonamide], in assay [1], the “kon” value was 12200 M⁻¹ s⁻¹, the “disc. t1/2 (dissociation half-life ln(2)/koff)” value is on record as 2.5 h, the Ki came out at 6.3 nM and the koff is 7.78e-05 s⁻¹. The compound also came in with an IC50 in assay [2] of 45 nM.
In the same order, the values of `CC(C)(C)NS(=O)(=O)c1cccc(C(=O)N2CC3(CCC(F)(F)CC3)c3cc(NS(C)(=O)=O)ccc32)c1` [Compound 144, N-(tert-butyl)-3-(4,4-difluoro-5′-(methylsulfonamido)spiro[cyclohexane-1,3′-indoline]-1′-carbonyl)benzenesulfonamide] are 4170 M⁻¹ s⁻¹, 5.2 h, 9.3 nM, 3.89e-05 s⁻¹ and 51 nM.
In the same order, the values of `CS(=O)(=O)Nc1ccc2c(c1)C1(CCC3(CC3)CC1)CN2C(=O)c1cccc(S(=O)(=O)C2CCCC2)c1` [Compound 155, N-(1″-(3-(cyclopentylsulfonyl)benzoyl)dispiro [cyclopropane-1,1′-cyclohexane-4′,3″- indolin]-5″-yl)methanesulfonamide] are 30600 M⁻¹ s⁻¹, 6.5 h, 2 nM, 3.06e-05 s⁻¹ and 7.4 nM.
In the case of `CC(C)(C)NS(=O)(=O)c1cccc(C(=O)N2C[C@]3(CC[C@H](C(F)F)CC3)c3cc(NS(C)(=O)=O)ccc32)c1` [Compound 162a], in assay [1], the “koff (off-rate from binding kinetics assay)” value came out at 1.53e-05 s⁻¹, the “kon” value stood at 8060 M⁻¹ s⁻¹, the “disc. t1/2 (dissociation half-life ln(2)/koff)” value was found to be 13 h and the Ki turned out to be 1.9 nM. Further, in assay [2], it took 15 nM to reach half-maximal inhibition (IC50).
On to `CS(=O)(=O)Nc1ccc2c(c1)C1(CCC3(CC3)CC1)CN2C(=O)c1cccc(S(=O)(=O)N2CC3C(C2)C3(F)F)c1` (centres unmarked) [Compound 237, N-(1″-(3-((6,6-difluoro-3-azabicyclo[3.1.0]hexan-3-yl)sulfonyl)benzoyl)dispiro[cyclopropane-1,1′-cyclohexane-4′,3″-indolin]-5″- yl)methanesulfonamide], for which, in assay [1], the “kon” value stood at 22800 M⁻¹ s⁻¹, the “disc. t1/2 (dissociation half-life ln(2)/koff)” value is 19 h, the Ki came to 0.44 nM and the koff was 1e-05 s⁻¹. The IC50 in assay [2] came to 11 nM.
`CC(C)(C)NS(=O)(=O)c1cc(C(=O)N2CC3(CCC4(CC4)CC3)c3cc(NS(C)(=O)=O)ccc32)cs1` [Compound 262, N-(tert-butyl)-4-(5″- (methylsulfonamido)dispiro[cyclopropane-1,1′-cyclohexane-4′,3″-indoline]-1″-carbonyl)thiophene-2-sulfonamide]: in assay [1], the “kon” value amounted to 8890 M⁻¹ s⁻¹, the “disc. t1/2 (dissociation half-life ln(2)/koff)” value was determined as 6.7 h, the Ki came to 0.31 nM and the dissociation rate constant (koff) was 2.86e-05 s⁻¹. The compound further came in with a half-inhibitory concentration (IC50) in assay [2] of 5.9 nM.
In the same order, the values of `CCS(=O)(=O)Nc1ccc2c(c1)C1(CCC3(CC3)CC1)CN2C(=O)c1cc(S(=O)(=O)NC(C)(C)C)cs1` [Compound 269, N-(tert-butyl)-5-(5″- (ethylsulfonamido)dispiro[cyclopropane-1,1′-cyclohexane-4′,3″-indoline]-1″- carbonyl)thiophene-3-sulfonamide] are 5560 M⁻¹ s⁻¹, 8.7 h, 4 nM, 2.22e-05 s⁻¹ and 79 nM.
In the same order, the values of `CC(C)(C)NS(=O)(=O)c1cc(C(=O)N2CC3(CCC4(CC4)CC3)c3cc(NS(C)(=O)=O)ccc32)ccc1O` [Compound 298, N-(tert-butyl)-2-hydroxy-5-(5″-(methylsulfonamido)dispiro[cyclopropane-1,1′-cyclohexane-4′,3″-indoline]-1″-carbonyl)benzenesulfonamide] are 19700 M⁻¹ s⁻¹, 26 h, 0.38 nM, 7.5e-06 s⁻¹ and 8.4 nM.
With `CCS(=O)(=O)Nc1ccc2c(c1)[C@]1(CC[C@H](C(F)F)CC1)CN2C(=O)c1cccc(S(=O)(=O)NC(C)(C)C)c1` [Compound 333b], in assay [1], the “koff (off-rate from binding kinetics assay)” value stood at 3.06e-06 s⁻¹, the “kon” value came out at 3890 M⁻¹ s⁻¹, the “disc. t1/2 (dissociation half-life ln(2)/koff)” value worked out at 63 h and the Ki was determined as 0.77 nM. In assay [2], this compound showed an IC50 of 33 nM.
